Assays:
[1] = Cyclic voltammetry; type: physicochemical
Text: It is known that Fe^2+/Fe^3+ redox chemistry has an important role in the bioactivity of ferrocene derivatives.[33] The production of reactive oxygen species (ROS) is one of the modes of action of ferroquine and other ferrocene derivatives[34] and is linked to the correlation between their bioactivity and electrochemical behavior. We determined whether a similar correlation could be made for the mixed-ligand platinum(II) complexes reported herein given that metal centers have the potential to be oxidized and reduced. The electrochemistry of the complexes was studied using cyclic voltammetry (CV), which uses a triangular potential waveform. The CV experiments were performed in either dry MeOH or DMF containing tetrabutylammonium chloride (TBACl) as the supporting electrolyte. The working electrode was glassy carbon with a platinum wire as the counter electrode and Ag/AgCl as the reference. The anodic (Epa) and cathodic (Epc) peak potentials at 0.1 V/s and half-wave potentials (E1/2) were measured (Table 3). All of the tested complexes undergo reversible one-electron Pt^2+/Pt^+ reductions (Figures S38–S46). Complexes C2, C4, and C8 undergo a second nonreversible reduction (Epc2), which is most likely ligand-based and linked to reductions of the substituent on the bpy. Looking at SAR2, the more electron-withdrawing the substituent, the […] the E1/2 (V vs Fe/Fe^+) value was. This trend was expected, as a more electron-withdrawing substituent reduces the electron density around the metal center, making it easier for the metal to be reduced from Pt^2+ to Pt^+. […] This is also the case for other bpy-containing platinum(II) complexes that only undergo reductions.[35],[36] […]
For the cyclic voltammetry experiments a solution of the test compound (1 x 10-3) in DMSO (3 mL) is added to the electrolyte solution (0.1 M tetrabutylammonium chloride (TBACl) in DMSO). The electrochemical measurements were obtained using a Basi Epsilon Eclipse Electrochemical Analyzer Potentiostat and the CV graphs were generated using Excel. The working electrode was glassy carbon (GC) with platinum wire as the counter electrode (CE) and Ag/AgCl as the reference. […]

[2] = Plasma protein binding by ultracentrifugation; type: in vitro ADME, human
Protocol: To determine the PK parameters, blood samples were collected from the tail vein of the mice into heparinized microcentrifugation tubes at distinct sampling times (0.17, 0.5, 1, 3, 5, 7, 9, 24, and 48 hours for intravenous dosing; 0.5, 1, 3, 5, 7, 9, 24 and 48 hours for oral dosing). All samples were stored at -80 °C until extraction.
For the bioanalysis, frozen whole blood was thawed at room temperature and 1-0 µL of each sample was extracted by protein precipitation (using 100 µL of acetonitrile containing 10 ng/ml of the internal standard, MMV394902). The sample was centrifuged. Supernatants of each sample were injected into the LC-MS/MS column for analysis. The analytical limit of quantitation (LOQ) was 2 ng/mL. The pharmacokinetic parameters were calculated using noncompartmental analysis using PK Solutions 2.0 (Summit Research Services, Montrose, CO, USA) and a curve stripping-based method.
1.10. […]
In preparation for the assay, the required membrane filters were precoated with hexadecane (5%) in hexane and were allowed to dry. […] The samples were analyzed using LCMS/MS (Agilent rapid resolution HPLC, AB SCIEX 4500 MS). The permeability (Papp) was calculated by using the normalized (analyte/internal standard) peak areas. Membrane integrity was calculated from the Papp of Lucifer yellow (acceptable values <50nm/s) using a Modulus microplate reader. […]

[3] = test system: late-stage gametocytes (NF54-PfS16-GFP-Luc); assay: Luciferase reporter assay, late-stage gametocytes; type: cell-based, Plasmodium falciparum
Protocol: All the complexes were tested for their early- and late-stage gametocyte activity in a dual-point assay (1 μM and 5 μM). […]
1.5.In vitro activity against gametocyte stages
PfNF54 gametocytes were prepared and isolated according to the method reported by Reader […]
The in vitro gametocyte activity of the synthesized complexes was determined using a luciferase reporter line-based assay.
NF54-PfS16-GFP-Luc parasites were used for the stage-specific assessment of gametocytocidal activity. Early-stage gametocyte (stage I-III) experiments were performed on day 5 (representing >90% of early-stage and late-stage gametocyte (stages IV/V) experiments were performed on day 10. In each experiment, assays were set up with the use of 2-3% […]
Luciferase activity was determined in 30 µL parasite lysates by adding luciferin substrate (30 µL) (Promega Luciferase Assay System) at room temperature. […]

SMILES: Nc1cc[n+]2c(c1)-c1cc(N)cc[n+]1[Pt-2]21[O+]=C(c2ccccc2)N=C(N(CCO)CCO)[S]1.[Cl-] [C6]
- Epa1 ([1]; anodic peak potential, 0.1 V/s): –1.138 V
- Epc1 ([1]; cathodic peak potential, 0.1 V/s): –1.068 V
- E1/2 ([1]; half-wave potential): –1.103 V vs Ag/Ag^+
- E1/2 ([1]; half-wave potential corrected to ferrocene): –1.643 V vs Fe/Fe^+
- Fu ([2]; Fu = (100 – PPB)/100): 0.01
- PPB (% bound) ([2]; human plasma, 5 µM): 99% bound
- LG (% inhibition) 1 µM ([3]; 1 µM, single biological repeat): 42.3 % inhibition
- LG (% inhibition) 5 µM ([3]; 5 µM, single biological repeat): 32.4 % inhibition
- IC50 ([3]; late (IV/V) gametocytes, luciferase, 48 h, read-out: LG IC50): > 20 µM

Source: PMC11912270, “Synthesis and SAR Studies of Acyl-Thiourea Platinum(II) Complexes Yield Analogs with Dual-Stage Antiplasmodium Activity” (ACS Medicinal Chemistry Letters, 2025)
